Key:
[1] = test system: common chickweed, Stellaria media; assay: Herbicidal efficacy screen, potter tower spray, necrosis assessed; assay type: in vivo
Procedure: (§1) Compounds 22, 23 and 24 were screened for herbicidal efficacy against target plants: garden cress, Lepidium sativum, common chickweed, Stellaria media, and white mustard […] alba Plants were obtained as seeds and were grown to the 2-4 true leaf stage. Plants were grown under laboratory conditions, individually in seed trays. Each plant (in an approximately 3 cm diameter plug) was then detached from the tray for spraying. The compounds were screened at a range of five concentrations, diluted in acetone and TweenTM. A carrier only control was also conducted. Treatments were applied directly onto the plants, using a potter tower, at a specified application rate. One plant of each species was sprayed using a potter tower. The 3 different types of plants were placed on a 10 cm diameter platform directly beneath the potter sprayer and sprayed simultaneously. The growth of the plants and any Phytotoxicity effects were then assessed at intervals over 21 days, according to EPPO guideline PP1/135. Five replicas were performed for each treatment, for each species. In the tables below C represents a percentage increase in necrosis relative to the control of 0.1-50; B represents a percentage inhibition of 50-80; and A represents a percentage inhibition of 80-100.

[2] = test system: white mustard Sinapsis alba; assay: as above; assay type: in vivo
Procedure: as §1

[3] = 12.5 g/ha, day 3 post application
[4] = 12.5 g/ha, day 4 post application
[5] = 12.5 g/ha, day 5 post application
[6] = 12.5 g/ha, day 7 post application
[7] = 12.5 g/ha, day 10 post application
[8] = 25 g/ha, day 1 post application
[9] = 25 g/ha, day 2 post application
[10] = 25 g/ha, day 3 post application
[11] = 25 g/ha, day 4 post application
[12] = 25 g/ha, day 5 post application
[13] = 25 g/ha, day 7 post application
[14] = 25 g/ha, day 10 post application
[15] = 50 g/ha, day 1 post application
[16] = 50 g/ha, day 2 post application
[17] = 50 g/ha, day 3 post application
[18] = 50 g/ha, day 4 post application
[19] = 50 g/ha, day 5 post application
[20] = 50 g/ha, day 7 post application
[21] = 50 g/ha, day 10 post application
[22] = 100 g/ha, day 1 post application
[23] = 100 g/ha, day 2 post application
[24] = 100 g/ha, day 3 post application
[25] = 100 g/ha, day 4 post application
[26] = 100 g/ha, day 5 post application
[27] = 100 g/ha, day 7 post application
[28] = 100 g/ha, day 10 post application
[29] = 200 g/ha, day 1 post application
[30] = 200 g/ha, day 2 post application
[31] = 200 g/ha, day 3 post application
[32] = 200 g/ha, day 4 post application
[33] = 200 g/ha, day 5 post application
[34] = 200 g/ha, day 7 post application
[35] = 200 g/ha, day 10 post application

CC(C)C(C)S(=O)(=O)NCc1cc(-n2c(=O)cc(C(F)(F)F)n(C)c2=O)c(F)cc1Cl (centres unmarked) [Compound 24, N-[[2-Chloro-4-fluoro-5-[3-methyl-2,6-dioxo-4-(trifluoromethyl)pyrimidin-1-yl]phenyl]methyl]-3-methyl-butane-2-sulfonamide]
Average of necrosis [1, 3]: C (C represents a percentage increase in necrosis relative to the control of 0.1-50) | Average of necrosis [1, 4]: C (C represents a percentage increase in necrosis relative to the control of 0.1-50) | Average of necrosis [1, 5]: C (C represents a percentage increase in necrosis relative to the control of 0.1-50) | Average of necrosis [1, 6]: C (C represents a percentage increase in necrosis relative to the control of 0.1-50) | Average of necrosis [1, 7]: C (C represents a percentage increase in necrosis relative to the control of 0.1-50) | Average of necrosis [1, 8]: C (C represents a percentage increase in necrosis relative to the control of 0.1-50) | Average of necrosis [1, 9]: C (C represents a percentage increase in necrosis relative to the control of 0.1-50) | Average of necrosis [1, 10]: C (C represents a percentage increase in necrosis relative to the control of 0.1-50) | Average of necrosis [1, 11]: C (C represents a percentage increase in necrosis relative to the control of 0.1-50) | Average of necrosis [1, 12]: C (C represents a percentage increase in necrosis relative to the control of 0.1-50) | Average of necrosis [1, 13]: C (C represents a percentage increase in necrosis relative to the control of 0.1-50) | Average of necrosis [1, 14]: C (C represents a percentage increase in necrosis relative to the control of 0.1-50) | Average of necrosis [1, 15]: C (C represents a percentage increase in necrosis relative to the control of 0.1-50) | Average of necrosis [1, 16]: C (C represents a percentage increase in necrosis relative to the control of 0.1-50) | Average of necrosis [1, 17]: C (C represents a percentage increase in necrosis relative to the control of 0.1-50) | Average of necrosis [1, 18]: C (C represents a percentage increase in necrosis relative to the control of 0.1-50) | Average of necrosis [1, 19]: A (A represents a percentage inhibition of 80-100) | Average of necrosis [1, 20]: A (A represents a percentage inhibition of 80-100) | Average of necrosis [1, 21]: A (A represents a percentage inhibition of 80-100) | Average of necrosis [1, 22]: C (C represents a percentage increase in necrosis relative to the control of 0.1-50) | Average of necrosis [1, 23]: C (C represents a percentage increase in necrosis relative to the control of 0.1-50) | Average of necrosis [1, 24]: C (C represents a percentage increase in necrosis relative to the control of 0.1-50) | Average of necrosis [1, 25]: B (B represents a percentage inhibition of 50-80) | Average of necrosis [1, 26]: B (B represents a percentage inhibition of 50-80) | Average of necrosis [1, 27]: B (B represents a percentage inhibition of 50-80) | Average of necrosis [1, 28]: A (A represents a percentage inhibition of 80-100) | Average of necrosis [1, 29]: C (C represents a percentage increase in necrosis relative to the control of 0.1-50) | Average of necrosis [1, 30]: C (C represents a percentage increase in necrosis relative to the control of 0.1-50) | Average of necrosis [1, 31]: C (C represents a percentage increase in necrosis relative to the control of 0.1-50) | Average of necrosis [1, 32]: C (C represents a percentage increase in necrosis relative to the control of 0.1-50) | Average of necrosis [1, 33]: A (A represents a percentage inhibition of 80-100) | Average of necrosis [1, 34]: A (A represents a percentage inhibition of 80-100) | Average of necrosis [1, 35]: A (A represents a percentage inhibition of 80-100) | Average of necrosis ([2]; 12.5 g/ha, day 1 post application): C (C represents a percentage increase in necrosis relative to the control of 0.1-50) | Average of necrosis ([2]; 12.5 g/ha, day 2 post application): C (C represents a percentage increase in necrosis relative to the control of 0.1-50) | Average of necrosis [2, 3]: C (C represents a percentage increase in necrosis relative to the control of 0.1-50) | Average of necrosis [2, 4]: C (C represents a percentage increase in necrosis relative to the control of 0.1-50) | Average of necrosis [2, 5]: C (C represents a percentage increase in necrosis relative to the control of 0.1-50) | Average of necrosis [2, 6]: C (C represents a percentage increase in necrosis relative to the control of 0.1-50) | Average of necrosis [2, 7]: C (C represents a percentage increase in necrosis relative to the control of 0.1-50) | Average of necrosis [2, 8]: C (C represents a percentage increase in necrosis relative to the control of 0.1-50) | Average of necrosis [2, 9]: C (C represents a percentage increase in necrosis relative to the control of 0.1-50) | Average of necrosis [2, 10]: C (C represents a percentage increase in necrosis relative to the control of 0.1-50) | Average of necrosis [2, 11]: C (C represents a percentage increase in necrosis relative to the control of 0.1-50) | Average of necrosis [2, 12]: C (C represents a percentage increase in necrosis relative to the control of 0.1-50) | Average of necrosis [2, 13]: C (C represents a percentage increase in necrosis relative to the control of 0.1-50) | Average of necrosis [2, 14]: C (C represents a percentage increase in necrosis relative to the control of 0.1-50) | Average of necrosis [2, 15]: C (C represents a percentage increase in necrosis relative to the control of 0.1-50) | Average of necrosis [2, 16]: C (C represents a percentage increase in necrosis relative to the control of 0.1-50) | Average of necrosis [2, 17]: C (C represents a percentage increase in necrosis relative to the control of 0.1-50) | Average of necrosis [2, 18]: C (C represents a percentage increase in necrosis relative to the control of 0.1-50) | Average of necrosis [2, 19]: C (C represents a percentage increase in necrosis relative to the control of 0.1-50) | Average of necrosis [2, 20]: C (C represents a percentage increase in necrosis relative to the control of 0.1-50) | Average of necrosis [2, 21]: C (C represents a percentage increase in necrosis relative to the control of 0.1-50) | Average of necrosis [2, 22]: C (C represents a percentage increase in necrosis relative to the control of 0.1-50) | Average of necrosis [2, 23]: C (C represents a percentage increase in necrosis relative to the control of 0.1-50) | Average of necrosis [2, 24]: C (C represents a percentage increase in necrosis relative to the control of 0.1-50) | Average of necrosis [2, 25]: C (C represents a percentage increase in necrosis relative to the control of 0.1-50) | Average of necrosis [2, 26]: C (C represents a percentage increase in necrosis relative to the control of 0.1-50) | Average of necrosis [2, 27]: C (C represents a percentage increase in necrosis relative to the control of 0.1-50) | Average of necrosis [2, 28]: C (C represents a percentage increase in necrosis relative to the control of 0.1-50) | Average of necrosis [2, 29]: C (C represents a percentage increase in necrosis relative to the control of 0.1-50) | Average of necrosis [2, 30]: C (C represents a percentage increase in necrosis relative to the control of 0.1-50) | Average of necrosis [2, 31]: C (C represents a percentage increase in necrosis relative to the control of 0.1-50) | Average of necrosis [2, 32]: C (C represents a percentage increase in necrosis relative to the control of 0.1-50) | Average of necrosis [2, 33]: C (C represents a percentage increase in necrosis relative to the control of 0.1-50) | Average of necrosis [2, 34]: C (C represents a percentage increase in necrosis relative to the control of 0.1-50) | Average of necrosis [2, 35]: C (C represents a percentage increase in necrosis relative to the control of 0.1-50)

— US9951028B2, “Agricultural chemicals” (REDAG CROP PROTECTION LTD, priority 2013, dated 2018)
